We go through three molecules from ChEMBL document CHEMBL4177695, “Identification of pyruvate dehydrogenase kinase 1 inhibitors with anti-osteosarcoma activity” (Bioorg Med Chem Lett, 2017).

Assay [1] addresses T1, [Pyruvate dehydrogenase (acetyl-transferring)] kinase isozyme 1, mitochondrial (Homo sapiens, UniProt Q15118). The assay is described as follows: Inhibition of PDK1 in human MG63 cells assessed as reduction in pyruvate dehydrogenase complex phosphorylation at ser293 residue after 12 hrs by high content analysis. The format is cell-based.
Assay [2] addresses T1, [Pyruvate dehydrogenase (acetyl-transferring)] kinase isozyme 1, mitochondrial. The assay is described as follows: Inhibition of PDK1 in human MG63 cells assessed as reduction in pyruvate dehydrogenase complex phosphorylation at ser293 residue at 3 uM after 12 hrs by high content analysis relative to control. The format is cell-based.
Assay [3] shares this target. The assay is described as follows: Inhibition of PDK1 in human MG63 cells assessed as reduction in pyruvate dehydrogenase complex phosphorylation at ser293 residue after 24 hrs by Western blot analysis. In kind it is cell-based.
Assay [4] shares this target. The assay is described as follows: Potency index, ratio of DCA IC50 to test compound IC50 for recombinant human GST-tagged PDK1 expressed in baculovirus infected Sf9 cells.
Assay [5] has the same target. The assay is described as follows: Inhibition of PDK1 in human MG63 cells assessed as reduction in pyruvate dehydrogenase complex phosphorylation at ser232 residue after 24 hrs by Western blot analysis. The format is cell-based.
Assay [6] shares this target. The assay is described as follows: Inhibition of recombinant human GST-tagged PDK1 expressed in baculovirus infected Sf9 cells at 10 uM using PDHA1 as substrate measured after 1 hr by ELISA relative to control.
Assay [7] relates to MG-63. The assay is described as follows: Anti-proliferative activity against human MG63 cells after 72 hrs by MTT assay. The format is functional, cell-based. Conditions: for pEC50: MG-63, 72 h.
Assay [8] has as its target T1, [Pyruvate dehydrogenase (acetyl-transferring)] kinase isozyme 1, mitochondrial. The assay is described as follows: Inhibition of recombinant human GST-tagged PDK1 expressed in baculovirus infected Sf9 cells using PDHA1 as substrate measured after 1 hr by ELISA.
Assay [9] has the same target. The assay is described as follows: Inhibition of PDK1 in human MG63 cells assessed as reduction in pyruvate dehydrogenase complex phosphorylation at ser232 residue after 12 hrs by high content analysis. The format is cell-based.
The test system of assay [10] is MG-63. The assay is described as follows: Potency index, ratio of DCA EC50 to test compound EC50 for human MG63 cells. The format is functional.
Assay [11] addresses T1, [Pyruvate dehydrogenase (acetyl-transferring)] kinase isozyme 1, mitochondrial. The assay is described as follows: Inhibition of PDK1 in human MG63 cells assessed as reduction in pyruvate dehydrogenase complex phosphorylation at ser293 residue at 6 uM after 12 hrs by high content analysis relative to control. In kind it is cell-based.
Assay [12] addresses [Pyruvate dehydrogenase (acetyl-transferring)] kinase isozyme 2, mitochondrial (Homo sapiens, UniProt Q15119). The assay is described as follows: Inhibition of recombinant human GST-tagged PDK2 expressed in baculovirus infected Sf9 cells using PDHA1 as substrate measured after 1 hr by ELISA.
Assay [13] concerns the target T1, [Pyruvate dehydrogenase (acetyl-transferring)] kinase isozyme 1, mitochondrial. The assay is described as follows: Inhibition of PDK1 in human MG63 cells assessed as reduction in pyruvate dehydrogenase complex phosphorylation at ser293 residue at 12 uM after 12 hrs by high content analysis relative to control. In kind it is cell-based.
Assay [14] shares this target. Conditions: 10 mM.
Description: Inhibition of PDK1 in human MG63 cells assessed as reduction in pyruvate dehydrogenase complex phosphorylation at ser293 residue at 10 mM after 24 hrs by Western blot analysis
Assay [15] has the same target. Particulars: 10 mM. The source holds these as a separate data set.
Description: Inhibition of PDK1 in human MG63 cells assessed as reduction in pyruvate dehydrogenase complex phosphorylation at ser232 residue at 10 mM after 24 hrs by Western blot analysis
The target is the same in assay [16]. Conditions: 10 mM. This is another data set of the same source.
Description: Inhibition of PDK1 in human MG63 cells assessed as reduction in pyruvate dehydrogenase complex phosphorylation at ser232 residue at 10 mM after 12 hrs by high content analysis
Assay [17] shares this target. Particulars: 10 mM. This is another data set of the same source.
Description: Inhibition of PDK1 in human MG63 cells assessed as reduction in pyruvate dehydrogenase complex phosphorylation at ser293 residue at 10 mM after 12 hrs by high content analysis

pEC50, pIC50: −log10 of the molar value. Activity calls are given as the source filed them. No cut-off for these calls is given here.

T1 sequence (Q15118 whole entry): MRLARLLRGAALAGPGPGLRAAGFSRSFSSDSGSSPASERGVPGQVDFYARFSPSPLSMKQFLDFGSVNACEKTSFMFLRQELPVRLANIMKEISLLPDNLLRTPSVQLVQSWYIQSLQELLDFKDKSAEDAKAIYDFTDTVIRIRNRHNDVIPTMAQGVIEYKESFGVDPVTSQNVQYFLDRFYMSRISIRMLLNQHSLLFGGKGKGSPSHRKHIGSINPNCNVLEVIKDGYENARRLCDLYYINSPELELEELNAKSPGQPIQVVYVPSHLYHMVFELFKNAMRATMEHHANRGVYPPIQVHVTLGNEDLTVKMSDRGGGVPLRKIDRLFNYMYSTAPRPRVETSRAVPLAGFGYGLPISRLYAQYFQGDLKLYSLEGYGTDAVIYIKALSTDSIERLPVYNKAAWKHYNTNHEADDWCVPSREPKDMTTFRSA

On to `O=c1c(-c2ccc(Br)cc2)coc2cc(OCCN3CCN(CCO)CC3)ccc12`, for which the inhibition entry in [1] was “Dose-dependent effect”; in assay [2], 17.6%; in assay [3] it was “Dose-dependent effect”; in assay [5] it was “Dose-dependent effect”; in assay [6], 83.3%; in assay [9] it was “Dose-dependent effect”. In addition, the inhibition amounted to 49.3% in assay [11] and 75.3% in [13]. Also, in [4], the Ratio IC50 is greater than 1000. Further, the Activity entry in the assay on MG-63 [7] was “Dose-dependent effect”. In the assay with MG-63 [7], this molecule had a pEC50 of 4.96. Further, the values for the pIC50 in [8] and in [12] were 5.50 and 4.96, respectively. In addition, the “Ratio EC50” value in the assay on MG-63 [10] was greater than 1000.

As to `COc1ccc(-c2c(C)c3ccc(OCCN4CCN(CCO)CC4)cc3oc2=O)cc1OC`, the inhibition entry was “Dose-dependent effect” in assay [1]; 18.7% in assay [2]; “Dose-dependent effect” in assay [3]; “Dose-dependent effect” in assay [5]; 80.5% in assay [6]; “Dose-dependent effect” in [9]. The figures for the inhibition in assay [11] and in [13] were 39.7% and 78.3%, respectively. The Ratio IC50 in [4] was greater than 1000. Further, in the assay with MG-63 [7], the Activity entry is “Dose-dependent effect”. Besides, the pEC50 with MG-63 [7] is 4.84. Also, the pIC50 in assay [8] is 5.53; in assay [12], 5.28. The “Ratio EC50” value in the assay with MG-63 [10] was greater than 1000.

Consider `O=C(O)C(Cl)Cl` [DICHLOROACETIC ACID], for which the inhibition entry in assay [14], in assay [15], in assay [16] and in [17] was “Active” each time. The pEC50 with MG-63 [7] was 1.81. In addition, the pIC50 in assay [12] was 2.05.
